Measured values from patent US20230406849A1, “KRAS INHIBITORS FOR TREATMENT OF CANCERS” (TYLIGAND BIOSCIENCE (SHANGHAI) LIMITED, priority 2020, published 2023).

Assay: Pharmacokinetics in rats, IV and oral
Assay type: in vivo, SD rats
Conditions: rat
Experimental: 2.2 Pharmacokinetic Properties of Representative Examples of the Present Disclosure
[Test materials] Same as above 2.1.
[Experimental procedure]: IV injection administration was performed on rats according to the similar procedure described in 2.1 above, with a drug concentration of 3 mg/mL, and the drug preparation, administration and sample collection were performed by reference to 2.1 above. For the oral administration group, the drug was formulated to a 3 mg/mL suspension in 0.5% methylcellulose MC-400cp (Aladdin, M112866), and gavage administered in 10 mL/kg. Blood samples were collected at the time points of 0.25, 0.5, 1, 2, 4, 6, 8 and 24 hours after administration via external jugular vein puncture, centrifuged at low temperature for 20 minutes, and the plasma samples were collected and stored at −80° C. until analysis.
The subsequent sample analysis and data processing are similar to those described in 2.1.

Which AUC(0-inf) (male, SD, plasma, IV, 3 mg/kg) does the source give for `C=CC(=O)N1CCN(c2c(C#N)cnc3c(F)c(-c4ccc(F)c5sc(N)nc45)c(Cl)cc23)CC1` [Example 9, 4-(4-Acryloylpiperazin-1-yl)-7-(2-amino-7-fluorobenzo[d]thiazol-4-yl)-6-chloro-8-fluoroquinoline-3-carbonitrile] here?
The AUC(0-inf) was 3310 ng·h/mL.

And the AUC(0-t) (male, SD, plasma, IV, 3 mg/kg)?
The AUC(0-t) was 3310 ng·h/mL.

And the Vd (male, SD, plasma, IV, 3 mg/kg)?
The Vd was 0.63 L/kg.

What about the clearance (male, SD, plasma, IV, 3 mg/kg) of the same compound?
Its clearance is 15.6 mL/min/kg.

And the half-life (male, SD, plasma, IV, 3 mg/kg)?
The half-life was 0.67 h.

And the AUC(0-inf) (male, SD, plasma, PO, 30 mg/kg)?
Its AUC(0-inf) is 7870 ng·h/mL.

What about the AUC(0-t) (male, SD, plasma, PO, 30 mg/kg) of the same compound?
Its AUC(0-t) is 7780 ng·h/mL.

What about the Cmax (male, SD, plasma, PO, 30 mg/kg) of the same compound?
Its Cmax is 2390 ng/mL.

And the Tmax (male, SD, plasma, PO, 30 mg/kg)?
Its Tmax is 1.33 h.

And the F (PO 30 mg/kg vs IV 3 mg/kg)?
The F was 23.8%.
